Laboratory results taken from patent US8901133B2, “Heterocyclic compounds and uses thereof” (Infinity Pharmaceuticals, Inc., priority 2010, dated 2014).

Legend:
PI3Kγ = target: T1, PI3Kγ (Homo sapiens, UniProt P48736); test: PI3 Kinase HTRF assay, PI3Kγ; assay type: biochemical; conditions: 10 μM PIP2, 10 μM ATP; read-out: PI3K γ IC50
T1 construct: purchased Millipore Corporation 14-558-K
Description: (§1) A PI3 Kinase HTRF® assay kit (cat No. 33-016) purchased from Millipore Corporation was used to screen compounds disclosed herein. This assay used specific, high affinity binding of the GRP1 pleckstrin homology (PH) domain to PIP3, the product of a Class 1A or 1B PI3 Kinase acting on its physiological substrate PIP2. During the detection phase of the assay, a complex was generated between the GST-tagged PH domain and biotinylated short chain PIP3. The biotinylated PIP3 and the GST-tagged PH domain recruited fluorophores (Streptavidin-Allophycocyanin and Europium-labeled anti-GST respectively) to form the fluorescence resonance energy transfer (FRET) architecture, generating a stable time-resolved FRET signal. The FRET complex was disrupted in a competitive manner by non-biotinylated PIP3, a product formed in the PI3 Kinase assay.
(§2) PI3 Kinase α, β, γ and δ activity was assayed using the PI3 Kinase HTRF® assay kit (catalogue No. 33-016) purchased from Millipore Corporation. Purified recombinant PI3Kα (catalogue No. 14-602-K), PI3Kβ (catalogue No. 14-603-K), PI3Kγ (catalogue No. 14-558-K) and PI3Kδ (catalogue No. 14-604-K) were obtained from Millipore Corporation. Purified recombinant PI3K enzyme was used to catalyze the phosphorylation of phosphatidylinositol 4,5-bisphosphate (PIP2 at 10 μM) to phosphatidylinositol 3,4,5-trisphosphate (PIP3) in the presence of 10 μM ATP. The assay was carried out in 384-well format and detected using a Perkin Elmer En Vision Xcite Multilabel Reader. Emission ratios were converted into percent inhibitions and imported into GraphPad Prism software. The concentration necessary to achieve inhibition of enzyme activity by 50% (IC50) was calculated using concentrations ranging from 20 μM to 0.1 nM (12-point curve). IC50 values were determined using a nonlinear regression model available in GraphPad Prism 5. […]

PI3Kβ = target: T2, PI3Kβ (Homo sapiens, UniProt P42338); test: PI3 Kinase HTRF assay, PI3Kβ; assay type: biochemical; conditions: 10 μM PIP2, 10 μM ATP; read-out: PI3K β IC50
T2 construct: purchased Millipore Corporation 14-603-K
Description: as §1, §2

PI3Kδ = target: T3, PI3Kδ (Homo sapiens, UniProt O00329); test: PI3 Kinase HTRF assay, PI3Kδ; assay type: biochemical; conditions: 10 μM PIP2, 10 μM ATP; read-out: PI3K δ IC50
T3 construct: purchased Millipore Corporation 14-604-K
Description: as §1, §2

PI3Kα = target: T4, PI3Kα (Homo sapiens, UniProt P42336); test: PI3 Kinase HTRF assay, PI3Kα; assay type: biochemical; conditions: 10 μM PIP2, 10 μM ATP; read-out: PI3K α IC50
T4 construct: purchased Millipore Corporation 14-602-K
Description: as §1, §2

Balb/c splenic B cells = test: B cell activation and proliferation assay (Alamar Blue); assay type: cell-based; conditions: Mus musculus, read-out: B cell prolif. IC50
Description: The ability of one or more subject compounds to inhibit B cell activation and proliferation is determined according to standard procedures known in the art. For example, an in vitro cellular proliferation assay is established that measures the metabolic activity of live cells. The assay is performed in a 96 well microtiter plate using Alamar Blue reduction. Balb/c splenic B cells are purified over a Ficoll-Paque™ PLUS gradient followed by magnetic cell separation using a MACS B cell Isolation Kit (Miletenyi). Cells are plated in 90 ul at 50,000 cells/well in B Cell Media (RPMI+10% FBS+Penn/Strep+50 uM bME+5 mM HEPES). A compound disclosed herein is diluted in B Cell Media and added in a 10 μl volume. Plates are incubated for 30 min at 37 C and 5% CO2 (0.2% DMSO final concentration). A 50 μl B cell stimulation cocktail is then added containing either 10 ug/ml LPS or 5 ug/ml F(ab′)2 Donkey anti-mouse IgM plus 2 ng/ml recombinant mouse IL4 in B Cell Media. Plates are incubated for 72 hours at 37° C. and 5% CO2. A volume of 15 μl of Alamar Blue reagent is added to each well and plates are incubated for 5 hours at 37 C and 5% CO2. Alamar Blue fluoresce is read at 560Ex/590Em, and IC50 or EC50 values are calculated using GraphPad Prism 5.

T1 sequence (P48736 whole entry): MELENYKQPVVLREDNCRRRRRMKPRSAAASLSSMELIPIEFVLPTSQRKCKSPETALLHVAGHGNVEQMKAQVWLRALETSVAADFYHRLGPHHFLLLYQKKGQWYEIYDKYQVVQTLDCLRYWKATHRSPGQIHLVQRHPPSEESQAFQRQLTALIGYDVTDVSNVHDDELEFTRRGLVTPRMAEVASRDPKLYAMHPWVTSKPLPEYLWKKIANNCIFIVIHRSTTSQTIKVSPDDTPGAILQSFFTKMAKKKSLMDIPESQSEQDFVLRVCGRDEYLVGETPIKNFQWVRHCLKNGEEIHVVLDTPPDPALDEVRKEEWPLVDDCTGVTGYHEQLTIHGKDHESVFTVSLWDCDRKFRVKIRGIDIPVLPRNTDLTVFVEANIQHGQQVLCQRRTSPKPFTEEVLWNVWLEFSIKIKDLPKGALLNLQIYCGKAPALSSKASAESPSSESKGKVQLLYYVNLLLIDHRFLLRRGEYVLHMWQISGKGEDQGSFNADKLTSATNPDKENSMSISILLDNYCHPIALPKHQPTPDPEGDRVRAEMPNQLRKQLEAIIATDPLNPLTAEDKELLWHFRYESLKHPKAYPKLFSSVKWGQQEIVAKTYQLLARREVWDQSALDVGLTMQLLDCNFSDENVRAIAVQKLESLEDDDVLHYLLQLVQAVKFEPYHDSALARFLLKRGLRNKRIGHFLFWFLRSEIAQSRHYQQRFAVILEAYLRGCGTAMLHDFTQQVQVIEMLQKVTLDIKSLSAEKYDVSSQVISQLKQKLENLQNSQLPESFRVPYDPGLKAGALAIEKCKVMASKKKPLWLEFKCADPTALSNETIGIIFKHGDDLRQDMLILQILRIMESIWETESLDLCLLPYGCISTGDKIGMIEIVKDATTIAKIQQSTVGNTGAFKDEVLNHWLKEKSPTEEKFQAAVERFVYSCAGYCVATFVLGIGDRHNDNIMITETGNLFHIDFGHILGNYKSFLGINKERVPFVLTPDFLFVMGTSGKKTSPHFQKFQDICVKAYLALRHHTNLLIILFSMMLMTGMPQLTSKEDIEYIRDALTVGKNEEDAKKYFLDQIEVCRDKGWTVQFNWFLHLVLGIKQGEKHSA
T4 sequence (P42336 whole entry): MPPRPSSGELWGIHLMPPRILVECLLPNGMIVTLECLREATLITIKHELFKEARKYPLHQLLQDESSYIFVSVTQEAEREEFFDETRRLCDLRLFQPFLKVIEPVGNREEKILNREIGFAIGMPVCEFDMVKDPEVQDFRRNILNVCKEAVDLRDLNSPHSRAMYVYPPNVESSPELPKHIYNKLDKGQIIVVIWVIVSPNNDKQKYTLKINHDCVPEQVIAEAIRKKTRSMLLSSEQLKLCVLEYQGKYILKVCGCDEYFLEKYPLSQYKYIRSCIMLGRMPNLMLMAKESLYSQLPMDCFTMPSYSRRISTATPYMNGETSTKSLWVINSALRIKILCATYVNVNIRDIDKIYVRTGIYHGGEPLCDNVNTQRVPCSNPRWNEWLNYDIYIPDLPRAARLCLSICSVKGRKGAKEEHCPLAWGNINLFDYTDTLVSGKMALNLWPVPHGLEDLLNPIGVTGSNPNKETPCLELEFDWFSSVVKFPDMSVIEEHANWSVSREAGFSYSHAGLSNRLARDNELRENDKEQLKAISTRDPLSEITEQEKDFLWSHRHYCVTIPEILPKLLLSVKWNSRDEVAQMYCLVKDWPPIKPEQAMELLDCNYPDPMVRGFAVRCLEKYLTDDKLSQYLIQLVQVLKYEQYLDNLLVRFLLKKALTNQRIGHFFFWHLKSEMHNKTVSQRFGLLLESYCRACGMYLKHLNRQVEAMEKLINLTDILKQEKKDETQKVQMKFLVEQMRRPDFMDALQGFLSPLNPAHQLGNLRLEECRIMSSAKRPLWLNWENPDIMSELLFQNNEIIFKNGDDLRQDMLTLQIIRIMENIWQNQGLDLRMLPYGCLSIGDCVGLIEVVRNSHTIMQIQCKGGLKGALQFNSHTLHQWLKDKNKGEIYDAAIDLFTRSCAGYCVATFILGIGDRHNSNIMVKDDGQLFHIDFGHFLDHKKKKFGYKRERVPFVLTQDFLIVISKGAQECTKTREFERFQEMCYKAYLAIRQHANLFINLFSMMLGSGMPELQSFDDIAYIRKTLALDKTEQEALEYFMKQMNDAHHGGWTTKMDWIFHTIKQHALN
T4 sequence (P27986 whole entry partner): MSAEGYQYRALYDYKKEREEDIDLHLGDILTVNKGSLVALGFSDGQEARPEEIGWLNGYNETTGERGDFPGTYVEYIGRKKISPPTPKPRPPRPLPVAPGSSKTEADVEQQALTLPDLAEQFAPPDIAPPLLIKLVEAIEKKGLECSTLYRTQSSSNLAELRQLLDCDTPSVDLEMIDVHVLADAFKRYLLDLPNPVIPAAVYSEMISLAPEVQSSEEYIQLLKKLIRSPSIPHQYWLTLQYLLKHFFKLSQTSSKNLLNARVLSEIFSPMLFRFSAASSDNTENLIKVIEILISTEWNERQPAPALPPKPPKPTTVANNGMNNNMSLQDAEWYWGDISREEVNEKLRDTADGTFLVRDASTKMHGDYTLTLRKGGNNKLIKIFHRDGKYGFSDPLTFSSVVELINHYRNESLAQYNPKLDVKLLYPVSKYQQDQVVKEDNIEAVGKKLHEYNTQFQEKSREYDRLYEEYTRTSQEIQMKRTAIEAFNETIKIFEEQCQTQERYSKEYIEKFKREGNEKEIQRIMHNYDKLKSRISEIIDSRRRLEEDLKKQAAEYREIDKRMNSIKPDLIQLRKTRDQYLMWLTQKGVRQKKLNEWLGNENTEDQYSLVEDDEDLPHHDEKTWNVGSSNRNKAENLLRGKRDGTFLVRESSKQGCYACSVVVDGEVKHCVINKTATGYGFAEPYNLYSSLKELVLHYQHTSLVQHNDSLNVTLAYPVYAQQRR
T2 sequence (P42338 whole entry): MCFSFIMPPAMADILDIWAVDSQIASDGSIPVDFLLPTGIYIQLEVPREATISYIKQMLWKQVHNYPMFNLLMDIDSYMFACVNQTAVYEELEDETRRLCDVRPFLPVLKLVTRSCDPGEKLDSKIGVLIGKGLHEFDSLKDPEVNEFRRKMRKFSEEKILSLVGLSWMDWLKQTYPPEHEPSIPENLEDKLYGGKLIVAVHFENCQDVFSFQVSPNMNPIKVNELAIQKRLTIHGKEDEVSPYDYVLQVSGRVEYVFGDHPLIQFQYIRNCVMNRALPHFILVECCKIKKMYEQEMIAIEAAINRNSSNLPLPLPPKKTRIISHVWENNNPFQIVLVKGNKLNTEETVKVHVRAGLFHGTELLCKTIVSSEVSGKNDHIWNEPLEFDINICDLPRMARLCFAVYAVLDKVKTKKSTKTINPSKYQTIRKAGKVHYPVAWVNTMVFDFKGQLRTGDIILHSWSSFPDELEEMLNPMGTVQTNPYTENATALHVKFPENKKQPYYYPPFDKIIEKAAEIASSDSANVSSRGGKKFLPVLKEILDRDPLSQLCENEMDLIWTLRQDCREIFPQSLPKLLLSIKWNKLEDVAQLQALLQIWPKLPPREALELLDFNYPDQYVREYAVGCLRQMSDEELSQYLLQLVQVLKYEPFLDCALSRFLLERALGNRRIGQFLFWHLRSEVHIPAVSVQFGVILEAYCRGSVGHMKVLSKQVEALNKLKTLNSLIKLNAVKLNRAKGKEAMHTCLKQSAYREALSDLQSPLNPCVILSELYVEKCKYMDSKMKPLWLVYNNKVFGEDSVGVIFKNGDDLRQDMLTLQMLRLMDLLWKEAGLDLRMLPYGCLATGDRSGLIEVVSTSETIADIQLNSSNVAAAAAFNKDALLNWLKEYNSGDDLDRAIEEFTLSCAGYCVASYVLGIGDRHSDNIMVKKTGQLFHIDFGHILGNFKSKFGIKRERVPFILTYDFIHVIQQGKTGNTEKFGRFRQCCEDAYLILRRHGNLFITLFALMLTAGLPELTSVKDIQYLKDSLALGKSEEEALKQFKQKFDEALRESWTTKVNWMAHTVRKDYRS
T2 sequence (P27986 whole entry partner): as the sequence (P27986 whole entry partner) above
T3 sequence (O00329 whole entry): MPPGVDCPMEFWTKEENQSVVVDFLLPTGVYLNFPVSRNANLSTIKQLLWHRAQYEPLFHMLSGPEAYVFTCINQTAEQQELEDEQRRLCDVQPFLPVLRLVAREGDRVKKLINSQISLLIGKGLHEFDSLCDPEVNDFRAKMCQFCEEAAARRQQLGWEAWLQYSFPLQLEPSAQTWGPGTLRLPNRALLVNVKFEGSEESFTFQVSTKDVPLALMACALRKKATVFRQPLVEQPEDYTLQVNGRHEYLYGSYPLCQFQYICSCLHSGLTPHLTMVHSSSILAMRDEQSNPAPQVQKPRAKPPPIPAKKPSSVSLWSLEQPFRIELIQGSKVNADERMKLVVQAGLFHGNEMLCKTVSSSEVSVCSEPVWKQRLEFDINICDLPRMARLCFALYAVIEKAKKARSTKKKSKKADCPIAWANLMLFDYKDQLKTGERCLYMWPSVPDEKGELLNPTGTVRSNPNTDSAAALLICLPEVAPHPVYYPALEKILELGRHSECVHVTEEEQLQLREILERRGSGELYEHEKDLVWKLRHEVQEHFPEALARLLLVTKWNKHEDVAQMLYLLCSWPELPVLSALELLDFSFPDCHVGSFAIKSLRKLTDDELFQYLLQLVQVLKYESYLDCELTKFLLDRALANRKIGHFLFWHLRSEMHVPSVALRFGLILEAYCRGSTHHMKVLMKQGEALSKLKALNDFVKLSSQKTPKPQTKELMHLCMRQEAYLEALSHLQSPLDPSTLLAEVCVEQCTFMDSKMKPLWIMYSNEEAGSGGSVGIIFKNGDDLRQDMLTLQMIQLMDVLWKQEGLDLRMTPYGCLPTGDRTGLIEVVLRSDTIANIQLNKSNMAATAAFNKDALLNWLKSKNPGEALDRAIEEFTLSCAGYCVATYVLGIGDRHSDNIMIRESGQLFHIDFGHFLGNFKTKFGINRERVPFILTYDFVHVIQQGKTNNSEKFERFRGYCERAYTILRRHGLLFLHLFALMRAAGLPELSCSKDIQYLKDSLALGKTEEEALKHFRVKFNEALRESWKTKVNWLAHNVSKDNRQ
T3 sequence (P27986 whole entry partner): as the sequence (P27986 whole entry partner) above

## C[C@H](Nc1ncnc2[nH]cnc12)c1cc2cccc(Cl)c2c(CC(=O)N2CCCC2)n1 [Compound 36]
PI3Kγ
  IC50: < 10 µM
PI3Kβ
  IC50: < 10 µM
PI3Kδ
  IC50: < 0.1 µM
PI3Kα
  IC50: > 10 µM
Balb/c splenic B cells
  IC50: < 1 µM

## C[C@H](Nc1ncnc2[nH]cnc12)c1cc2cccc(Cl)c2c(CC(=O)N2CCN(C)CC2)n1 [Compound 37]
PI3Kγ
  IC50: > 10 µM
PI3Kβ
  IC50: > 10 µM
PI3Kδ
  IC50: < 1 µM
PI3Kα
  IC50: > 10 µM
Balb/c splenic B cells
  IC50: < 1 µM

## CC(=O)NCCOc1nc([C@H](C)Nc2ncnc3[nH]cnc23)cc2cccc(Cl)c12 [Compound 40, (S)—N-(2-(3-(1-(9H-purin-6-ylamino)ethyl)-8-chloroisoquinolin-1-yloxy)ethyl)acetamide]
PI3Kγ
  IC50: < 1 µM
PI3Kβ
  IC50: < 10 µM
PI3Kδ
  IC50: < 0.1 µM
PI3Kα
  IC50: < 10 µM
Balb/c splenic B cells
  IC50: < 0.1 µM

## C[C@H](Nc1ncnc2[nH]cnc12)c1cc2cccc(Cl)c2c(OCC(=O)N2CCN(C)CC2)n1 [Compound 42]
PI3Kγ
  IC50: > 10 µM
PI3Kβ
  IC50: < 10 µM
PI3Kδ
  IC50: < 0.1 µM
PI3Kα
  IC50: > 10 µM
Balb/c splenic B cells
  IC50: < 1 µM

## C[C@H](Nc1ncnc2[nH]cnc12)c1cc2cccc(Cl)c2c(OCC(=O)N2CCOCC2)n1 [Compound 43]
PI3Kγ
  IC50: < 1 µM
PI3Kβ
  IC50: > 10 µM
PI3Kδ
  IC50: < 0.1 µM
PI3Kα
  IC50: < 10 µM
Balb/c splenic B cells
  IC50: < 0.1 µM

## CNC(=O)COc1nc([C@H](C)Nc2ncnc3[nH]cnc23)cc2cccc(Cl)c12 [Compound 44]
PI3Kγ
  IC50: < 1 µM
PI3Kβ
  IC50: < 10 µM
PI3Kδ
  IC50: < 0.1 µM
PI3Kα
  IC50: < 10 µM
Balb/c splenic B cells
  IC50: < 1 µM

## C[C@H](Nc1ncnc2[nH]cnc12)c1cc2cccc(Cl)c2c(OCC(=O)N2CCCC2)n1 [Compound 45]
PI3Kγ
  IC50: < 10 µM
PI3Kβ
  IC50: > 10 µM
PI3Kδ
  IC50: < 0.1 µM
PI3Kα
  IC50: > 10 µM
Balb/c splenic B cells
  IC50: < 1 µM

## C[C@H](Nc1ncnc2cccnc12)c1cc2cccc(Cl)c2c(C(=O)N2CCCCC2)n1 [Compound 230]
PI3Kγ
  IC50: < 1 µM
PI3Kβ
  IC50: > 10 µM
PI3Kδ
  IC50: < 1 µM
PI3Kα
  IC50: < 10 µM

## C[C@H](Nc1ncnc2cccnc12)c1cc2cccc(Cl)c2c(C(=O)N2CCCOCC2)n1 [Compound 231]
PI3Kγ
  IC50: < 10 µM
PI3Kβ
  IC50: > 10 µM
PI3Kδ
  IC50: < 1 µM
PI3Kα
  IC50: < 10 µM

## C[C@H](Nc1ncnc2cccnc12)c1cc2cccc(Cl)c2c(C(=O)N2CCC(O)CC2)n1 [Compound 233]
PI3Kγ
  IC50: < 10 µM
PI3Kβ
  IC50: > 10 µM
PI3Kδ
  IC50: < 1 µM
PI3Kα
  IC50: < 10 µM

## C[C@@H](Nc1ncnc2[nH]cnc12)c1cc2cccc(Cl)c2c(CN2CCCC2)n1 [Compound 239]
PI3Kγ
  IC50: > 10 µM
PI3Kβ
  IC50: > 10 µM
PI3Kδ
  IC50: > 10 µM
PI3Kα
  IC50: > 10 µM

## C[C@H](Nc1ncnc2cccnc12)c1cc2cccc(-c3cnn(C)c3)c2c(N2CCN(C)CC2)n1 [Compound 243]
PI3Kγ
  IC50: < 10 µM
PI3Kβ
  IC50: < 10 µM
PI3Kδ
  IC50: < 1 µM
PI3Kα
  IC50: > 10 µM

## COCCN(C)C(=O)c1nc([C@H](C)Nc2ncnc3cccnc23)cc2cccc(Cl)c12 [Compound 244]
PI3Kγ
  IC50: < 10 µM
PI3Kβ
  IC50: > 10 µM
PI3Kδ
  IC50: < 1 µM
PI3Kα
  IC50: > 10 µM

## C[C@H](Nc1ncnc2cccnc12)c1cc2cccc(Cl)c2c(C(=O)N2CCOC[C@H]2C)n1 [Compound 245]
PI3Kγ
  IC50: < 1 µM
PI3Kβ
  IC50: > 10 µM
PI3Kδ
  IC50: < 1 µM
PI3Kα
  IC50: > 10 µM

## C[C@H](Nc1ncnc2scnc12)c1cc2cccc(Cl)c2c(C(=O)N2CCOC[C@H]2C)n1 [Compound 246]
PI3Kγ
  IC50: < 10 µM
PI3Kβ
  IC50: < 10 µM
PI3Kδ
  IC50: < 1 µM
PI3Kα
  IC50: < 10 µM

## COCCN(C)C(=O)c1nc([C@H](C)Nc2ncnc3scnc23)cc2cccc(Cl)c12 [Compound 249]
PI3Kγ
  IC50: < 1 µM
PI3Kβ
  IC50: < 10 µM
PI3Kδ
  IC50: < 0.1 µM
PI3Kα
  IC50: < 10 µM
